From PMC7265341, “Quantifying CDK inhibitor selectivity in live cells” (Nature Communications, 2020)

Columns and labels:
Details in all cases: 10µM
CDK17/Cyclin Y = CDK17/Cyclin Y (Homo sapiens, UniProt Q00537); test: NanoBRET live-cell target engagement, CDK17-NanoLuc/Cyclin Y in HEK-293; assay type: binding
CDK11A/Cyclin L2 = molecular target: T1, CDK11A/Cyclin L2 (Homo sapiens, UniProt Q9UQ88); test: NanoBRET live-cell target engagement, CDK11A-NanoLuc/Cyclin L2 in HEK-293; assay type: binding
T1 sequence (Q9UQ88 1-783): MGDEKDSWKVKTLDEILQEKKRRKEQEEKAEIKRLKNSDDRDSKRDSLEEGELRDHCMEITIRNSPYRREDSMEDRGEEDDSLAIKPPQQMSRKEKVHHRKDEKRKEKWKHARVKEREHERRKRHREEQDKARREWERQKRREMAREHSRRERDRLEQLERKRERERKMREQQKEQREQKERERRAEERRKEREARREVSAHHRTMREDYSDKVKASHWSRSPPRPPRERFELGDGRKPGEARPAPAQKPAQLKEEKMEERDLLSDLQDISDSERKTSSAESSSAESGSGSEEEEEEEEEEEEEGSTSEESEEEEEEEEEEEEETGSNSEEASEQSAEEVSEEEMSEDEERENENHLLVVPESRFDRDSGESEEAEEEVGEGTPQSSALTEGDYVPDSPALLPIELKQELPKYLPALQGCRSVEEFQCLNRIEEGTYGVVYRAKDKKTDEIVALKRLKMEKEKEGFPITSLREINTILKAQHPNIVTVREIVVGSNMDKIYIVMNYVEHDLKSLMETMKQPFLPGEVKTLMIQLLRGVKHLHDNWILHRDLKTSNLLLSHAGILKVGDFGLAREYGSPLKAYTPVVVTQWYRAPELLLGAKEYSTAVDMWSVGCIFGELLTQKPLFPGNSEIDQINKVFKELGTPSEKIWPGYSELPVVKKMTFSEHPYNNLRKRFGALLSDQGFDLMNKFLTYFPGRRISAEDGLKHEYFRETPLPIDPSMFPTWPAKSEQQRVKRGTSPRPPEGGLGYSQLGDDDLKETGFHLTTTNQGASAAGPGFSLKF

CDK3/Cyclin E1 = CDK3/Cyclin E1 (Homo sapiens, UniProt Q00526); test: NanoBRET live-cell target engagement, CDK3-NanoLuc/Cyclin E1 in HEK-293; assay type: binding
CDK13/Cyclin K = CDK13/Cyclin K (Homo sapiens, UniProt Q14004); test: NanoBRET live-cell target engagement, CDK13-NanoLuc/Cyclin K in HEK-293; assay type: binding
CDK12/Cyclin K = CDK12/Cyclin K (Homo sapiens, UniProt Q9NYV4); test: NanoBRET live-cell target engagement, CDK12-NanoLuc/Cyclin K in HEK-293; assay type: binding
CDK11B/Cyclin L2 = CDK11B/Cyclin L2 (Homo sapiens, UniProt P21127); test: NanoBRET live-cell target engagement, CDK11B-NanoLuc/Cyclin L2 in HEK-293; assay type: binding
Sequence of CDK11B/Cyclin L2 (P21127 1-782 isoform P21127-2): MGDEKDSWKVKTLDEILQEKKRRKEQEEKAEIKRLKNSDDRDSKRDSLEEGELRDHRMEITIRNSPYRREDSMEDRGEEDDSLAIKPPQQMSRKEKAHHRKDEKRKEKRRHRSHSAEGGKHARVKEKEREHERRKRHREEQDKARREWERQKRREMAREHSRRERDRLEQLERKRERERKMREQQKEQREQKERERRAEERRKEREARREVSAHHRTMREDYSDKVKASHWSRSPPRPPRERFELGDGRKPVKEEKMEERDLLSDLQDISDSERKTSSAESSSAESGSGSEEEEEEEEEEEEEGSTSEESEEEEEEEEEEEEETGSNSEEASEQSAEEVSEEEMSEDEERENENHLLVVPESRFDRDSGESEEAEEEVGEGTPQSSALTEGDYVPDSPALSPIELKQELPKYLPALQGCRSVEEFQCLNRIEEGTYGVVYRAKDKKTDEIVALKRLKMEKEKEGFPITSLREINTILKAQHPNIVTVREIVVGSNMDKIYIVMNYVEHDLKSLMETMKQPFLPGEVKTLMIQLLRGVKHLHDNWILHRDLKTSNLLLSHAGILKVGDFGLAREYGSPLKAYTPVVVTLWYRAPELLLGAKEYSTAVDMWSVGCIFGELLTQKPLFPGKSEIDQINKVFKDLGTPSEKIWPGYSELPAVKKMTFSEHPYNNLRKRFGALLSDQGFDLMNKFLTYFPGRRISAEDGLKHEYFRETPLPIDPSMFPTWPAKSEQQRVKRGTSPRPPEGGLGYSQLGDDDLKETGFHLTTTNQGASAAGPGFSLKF

CDK2/Cyclin E1 = CDK2/Cyclin E1 (Homo sapiens, UniProt P24941); test: NanoBRET live-cell target engagement, CDK2-NanoLuc/Cyclin E1 in HEK-293; assay type: binding
CDK18/Cyclin Y = CDK18/Cyclin Y (Homo sapiens, UniProt Q07002); test: NanoBRET live-cell target engagement, CDK18-NanoLuc/Cyclin Y in HEK-293; assay type: binding
Sequence of CDK18/Cyclin Y (Q07002 whole entry): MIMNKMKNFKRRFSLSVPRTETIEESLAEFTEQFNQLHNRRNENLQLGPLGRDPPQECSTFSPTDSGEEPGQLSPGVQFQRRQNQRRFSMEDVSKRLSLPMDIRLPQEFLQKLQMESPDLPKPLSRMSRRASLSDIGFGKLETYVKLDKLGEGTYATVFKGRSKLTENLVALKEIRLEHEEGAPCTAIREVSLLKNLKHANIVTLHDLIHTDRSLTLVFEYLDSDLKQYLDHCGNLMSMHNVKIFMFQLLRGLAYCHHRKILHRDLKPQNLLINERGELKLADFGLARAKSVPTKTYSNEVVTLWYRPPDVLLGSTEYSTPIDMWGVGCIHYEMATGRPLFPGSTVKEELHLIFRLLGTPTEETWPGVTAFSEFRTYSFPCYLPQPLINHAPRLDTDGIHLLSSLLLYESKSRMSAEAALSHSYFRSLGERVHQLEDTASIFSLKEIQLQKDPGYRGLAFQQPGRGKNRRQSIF
Sequence of CDK18/Cyclin Y (Q8ND76 whole entry partner): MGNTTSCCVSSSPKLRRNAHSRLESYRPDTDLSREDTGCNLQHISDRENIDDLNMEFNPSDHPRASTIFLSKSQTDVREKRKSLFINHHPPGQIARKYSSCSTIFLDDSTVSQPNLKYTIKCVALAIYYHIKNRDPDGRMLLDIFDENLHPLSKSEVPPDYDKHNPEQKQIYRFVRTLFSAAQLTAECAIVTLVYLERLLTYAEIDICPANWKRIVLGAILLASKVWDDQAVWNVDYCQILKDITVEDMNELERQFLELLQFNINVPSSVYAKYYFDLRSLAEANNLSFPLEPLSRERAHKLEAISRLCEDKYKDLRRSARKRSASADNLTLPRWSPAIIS

CDK15/Cyclin Y = CDK15/Cyclin Y (Homo sapiens, UniProt Q96Q40); test: NanoBRET live-cell target engagement, NanoLuc-CDK15/Cyclin Y in HEK-293; assay type: binding
Sequence of CDK15/Cyclin Y (Q96Q40 whole entry): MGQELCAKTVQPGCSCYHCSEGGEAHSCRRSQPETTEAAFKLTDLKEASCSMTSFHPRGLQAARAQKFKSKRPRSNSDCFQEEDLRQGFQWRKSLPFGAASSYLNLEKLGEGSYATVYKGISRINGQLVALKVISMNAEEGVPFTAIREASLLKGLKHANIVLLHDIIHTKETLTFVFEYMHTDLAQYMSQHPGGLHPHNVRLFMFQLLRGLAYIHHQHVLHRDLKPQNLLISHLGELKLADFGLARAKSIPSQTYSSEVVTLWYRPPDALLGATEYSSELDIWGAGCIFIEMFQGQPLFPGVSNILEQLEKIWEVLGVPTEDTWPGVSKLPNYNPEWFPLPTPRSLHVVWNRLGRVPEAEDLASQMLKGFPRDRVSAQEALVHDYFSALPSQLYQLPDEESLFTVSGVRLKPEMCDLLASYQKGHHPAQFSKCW
Sequence of CDK15/Cyclin Y (Q8ND76 whole entry partner): as the sequence (Q8ND76 whole entry partner) above

CDK7 = CDK7 (Homo sapiens, UniProt P50613); test: NanoBRET live-cell target engagement, NanoLuc-CDK7 in HEK-293; assay type: binding
CDK8/Cyclin C = CDK8/Cyclin C (Homo sapiens, UniProt P49336); test: NanoBRET live-cell target engagement, NanoLuc-CDK8/Cyclin C in HEK-293; assay type: binding
CDK1/Cyclin E1 = CDK1/Cyclin E1 (Homo sapiens, UniProt P06493); test: NanoBRET live-cell target engagement, CDK1-NanoLuc/Cyclin E1 in HEK-293; assay type: binding
CDK19/Cyclin C = CDK19/Cyclin C (Homo sapiens, UniProt Q9BWU1); test: NanoBRET live-cell target engagement, NanoLuc-CDK19/Cyclin C in HEK-293
Sequence of CDK19/Cyclin C (Q9BWU1 whole entry): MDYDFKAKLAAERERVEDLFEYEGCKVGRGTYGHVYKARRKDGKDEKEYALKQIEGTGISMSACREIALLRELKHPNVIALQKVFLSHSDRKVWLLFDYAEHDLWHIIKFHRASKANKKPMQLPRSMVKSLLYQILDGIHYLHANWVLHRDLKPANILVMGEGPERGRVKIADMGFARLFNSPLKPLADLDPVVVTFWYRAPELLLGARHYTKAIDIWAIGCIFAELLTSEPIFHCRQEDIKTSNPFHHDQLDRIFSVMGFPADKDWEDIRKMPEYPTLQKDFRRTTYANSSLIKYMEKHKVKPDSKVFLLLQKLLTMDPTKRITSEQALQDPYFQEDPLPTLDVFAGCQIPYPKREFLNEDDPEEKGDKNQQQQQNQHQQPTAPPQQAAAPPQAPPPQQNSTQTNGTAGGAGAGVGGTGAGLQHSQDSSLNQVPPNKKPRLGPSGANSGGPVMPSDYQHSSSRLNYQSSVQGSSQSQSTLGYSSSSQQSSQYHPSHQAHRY
Sequence of CDK19/Cyclin C (P24863 whole entry partner): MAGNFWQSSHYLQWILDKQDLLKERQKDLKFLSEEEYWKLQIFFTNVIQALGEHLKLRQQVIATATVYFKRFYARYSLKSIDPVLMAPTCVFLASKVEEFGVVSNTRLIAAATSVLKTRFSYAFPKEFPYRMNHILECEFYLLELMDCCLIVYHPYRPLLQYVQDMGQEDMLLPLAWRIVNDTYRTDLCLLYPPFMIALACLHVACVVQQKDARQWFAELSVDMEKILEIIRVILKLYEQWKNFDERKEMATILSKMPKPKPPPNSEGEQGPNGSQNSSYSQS

CDK16/Cyclin Y = CDK16/Cyclin Y (Homo sapiens, UniProt Q00536); test: NanoBRET live-cell target engagement, CDK16-NanoLuc/Cyclin Y in HEK-293; assay type: binding
CDK4/Cyclin D1 = CDK4/Cyclin D1 (Homo sapiens, UniProt P11802); test: NanoBRET live-cell target engagement, NanoLuc-CDK4/Cyclin D1 in HEK-293; assay type: binding
CDK9/Cyclin K = CDK9/Cyclin K (Homo sapiens, UniProt P50750); test: NanoBRET live-cell target engagement, NanoLuc-CDK9/Cyclin K in HEK-293; assay type: binding
Sequence of CDK9/Cyclin K (P50750 whole entry): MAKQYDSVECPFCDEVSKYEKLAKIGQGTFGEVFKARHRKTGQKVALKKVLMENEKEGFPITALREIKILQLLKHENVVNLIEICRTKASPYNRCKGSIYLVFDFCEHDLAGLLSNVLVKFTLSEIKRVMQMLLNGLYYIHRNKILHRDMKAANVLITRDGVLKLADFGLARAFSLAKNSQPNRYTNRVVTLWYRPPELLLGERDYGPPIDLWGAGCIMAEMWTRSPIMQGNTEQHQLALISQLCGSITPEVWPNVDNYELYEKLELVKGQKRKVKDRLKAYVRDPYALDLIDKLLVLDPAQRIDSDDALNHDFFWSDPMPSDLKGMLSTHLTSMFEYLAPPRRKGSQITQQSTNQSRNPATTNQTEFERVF
Sequence of CDK9/Cyclin K (O75909 whole entry partner): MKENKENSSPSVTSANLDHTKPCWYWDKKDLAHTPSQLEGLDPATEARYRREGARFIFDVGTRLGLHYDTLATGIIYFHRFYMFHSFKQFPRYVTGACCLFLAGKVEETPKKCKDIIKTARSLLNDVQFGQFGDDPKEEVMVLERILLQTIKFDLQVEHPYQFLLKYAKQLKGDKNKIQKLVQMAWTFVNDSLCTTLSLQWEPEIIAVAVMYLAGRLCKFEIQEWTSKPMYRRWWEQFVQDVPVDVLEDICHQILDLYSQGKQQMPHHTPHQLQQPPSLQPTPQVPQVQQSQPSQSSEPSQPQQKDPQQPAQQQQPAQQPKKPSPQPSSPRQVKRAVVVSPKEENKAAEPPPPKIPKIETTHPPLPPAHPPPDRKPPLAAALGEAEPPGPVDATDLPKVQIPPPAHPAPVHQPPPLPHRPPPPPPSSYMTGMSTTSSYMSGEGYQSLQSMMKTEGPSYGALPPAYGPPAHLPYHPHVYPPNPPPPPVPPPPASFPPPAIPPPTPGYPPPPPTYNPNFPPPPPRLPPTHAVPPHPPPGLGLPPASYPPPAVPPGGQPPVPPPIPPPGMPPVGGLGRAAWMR

CDK14/Cyclin Y = CDK14/Cyclin Y (Homo sapiens, UniProt O94921); test: NanoBRET live-cell target engagement, CDK14-NanoLuc/Cyclin Y in HEK-293; assay type: binding
Sequence of CDK14/Cyclin Y (O94921 whole entry): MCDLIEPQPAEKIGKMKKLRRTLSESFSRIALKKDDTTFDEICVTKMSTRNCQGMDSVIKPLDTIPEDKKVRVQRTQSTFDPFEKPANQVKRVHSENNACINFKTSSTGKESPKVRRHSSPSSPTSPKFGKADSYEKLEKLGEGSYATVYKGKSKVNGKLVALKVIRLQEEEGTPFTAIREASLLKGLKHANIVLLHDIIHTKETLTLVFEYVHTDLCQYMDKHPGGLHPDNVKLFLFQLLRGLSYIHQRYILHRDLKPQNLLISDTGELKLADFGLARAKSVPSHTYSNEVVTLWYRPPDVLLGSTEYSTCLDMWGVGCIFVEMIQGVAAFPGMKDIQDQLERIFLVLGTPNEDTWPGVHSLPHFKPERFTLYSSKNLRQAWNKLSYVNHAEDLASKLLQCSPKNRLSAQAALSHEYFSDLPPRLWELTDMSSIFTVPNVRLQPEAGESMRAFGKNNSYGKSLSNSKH
Sequence of CDK14/Cyclin Y (Q8ND76 whole entry partner): as the sequence (Q8ND76 whole entry partner) above

CDK20/Cyclin H = CDK20/Cyclin H (Homo sapiens, UniProt Q8IZL9); test: NanoBRET live-cell target engagement, NanoLuc-CDK20/Cyclin H in HEK-293; assay type: binding
CDK10/Cyclin L2 = CDK10/Cyclin L2 (Homo sapiens, UniProt Q15131); test: NanoBRET live-cell target engagement, CDK10-NanoLuc/Cyclin L2 in HEK-293
CDK6/Cyclin D1 = CDK6/Cyclin D1 (Homo sapiens, UniProt Q00534); test: NanoBRET live-cell target engagement, NanoLuc-CDK6/Cyclin D1 in HEK-293; assay type: binding
CDK5/CDK5R1 = CDK5/CDK5R1 (Homo sapiens, UniProt Q00535); test: NanoBRET live-cell target engagement, CDK5-NanoLuc/CDK5R1 in HEK-293; assay type: binding
Sequence of CDK5/CDK5R1 (Q00535 whole entry): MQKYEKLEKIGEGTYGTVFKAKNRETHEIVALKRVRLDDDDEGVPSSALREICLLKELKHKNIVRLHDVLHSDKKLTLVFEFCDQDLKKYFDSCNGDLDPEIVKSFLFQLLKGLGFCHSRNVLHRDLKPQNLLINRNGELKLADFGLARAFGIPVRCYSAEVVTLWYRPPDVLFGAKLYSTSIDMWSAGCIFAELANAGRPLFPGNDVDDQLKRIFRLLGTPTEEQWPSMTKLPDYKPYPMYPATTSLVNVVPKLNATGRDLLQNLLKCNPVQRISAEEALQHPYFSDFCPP
Sequence of CDK5/CDK5R1 (Q15078 whole entry partner): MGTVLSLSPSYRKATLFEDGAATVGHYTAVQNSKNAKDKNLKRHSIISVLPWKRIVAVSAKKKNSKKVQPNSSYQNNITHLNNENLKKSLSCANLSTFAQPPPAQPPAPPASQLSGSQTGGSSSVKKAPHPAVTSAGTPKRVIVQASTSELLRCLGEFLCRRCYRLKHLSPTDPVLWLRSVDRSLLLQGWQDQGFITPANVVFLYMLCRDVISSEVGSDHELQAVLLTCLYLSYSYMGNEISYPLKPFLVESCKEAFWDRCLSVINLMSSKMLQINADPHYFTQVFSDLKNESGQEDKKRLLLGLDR

Structure (SMILES): O=C1NCCc2[nH]c(-c3ccncc3)cc21 [PHA-767491]
- CDK17/Y Inhibition at 10µM (%) (CDK17/Cyclin Y; average of experiments): 24.8%
- CDK17/Y Inhibition at 10µM (%) (CDK17/Cyclin Y; independent experiment 1): 31.6%
- CDK17/Y Inhibition at 10µM (%) (CDK17/Cyclin Y; independent experiment 2): 18.1%
- CDK11a/L2 Inhibition at 10µM (%) (CDK11A/Cyclin L2; average of experiments): 24.0%
- CDK11a/L2 Inhibition at 10µM (%) (CDK11A/Cyclin L2; independent experiment 1): 26.5%
- CDK11a/L2 Inhibition at 10µM (%) (CDK11A/Cyclin L2; independent experiment 2): 21.5%
- CDK3/E1 Inhibition at 10µM (%) (CDK3/Cyclin E1; average of experiments): 31.6%
- CDK3/E1 Inhibition at 10µM (%) (CDK3/Cyclin E1; independent experiment 1): 30.4%
- CDK3/E1 Inhibition at 10µM (%) (CDK3/Cyclin E1; independent experiment 2): 32.8%
- CDK13/K Inhibition at 10µM (%) (CDK13/Cyclin K; average of experiments): 11.6%
- CDK13/K Inhibition at 10µM (%) (CDK13/Cyclin K; independent experiment 1): 14.1%
- CDK13/K Inhibition at 10µM (%) (CDK13/Cyclin K; independent experiment 2): 9.2%
- CDK12/K Inhibition at 10µM (%) (CDK12/Cyclin K; average of experiments): 18.3%
- CDK12/K Inhibition at 10µM (%) (CDK12/Cyclin K; independent experiment 1): 19.8%
- CDK12/K Inhibition at 10µM (%) (CDK12/Cyclin K; independent experiment 2): 16.8%
- CDK11b/L2 Inhibition at 10µM (%) (CDK11B/Cyclin L2; average of experiments): 42.2%
- CDK11b/L2 Inhibition at 10µM (%) (CDK11B/Cyclin L2; independent experiment 1): 43.3%
- CDK11b/L2 Inhibition at 10µM (%) (CDK11B/Cyclin L2; independent experiment 2): 41.0%
- CDK2/E1 Inhibition at 10µM (%) (CDK2/Cyclin E1; average of experiments): 26.7%
- CDK2/E1 Inhibition at 10µM (%) (CDK2/Cyclin E1; independent experiment 1): 26.7%
- CDK2/E1 Inhibition at 10µM (%) (CDK2/Cyclin E1; independent experiment 2): 26.6%
- CDK18/Y Inhibition at 10µM (%) (CDK18/Cyclin Y; average of experiments): 28.3%
- CDK18/Y Inhibition at 10µM (%) (CDK18/Cyclin Y; independent experiment 1): 21.8%
- CDK18/Y Inhibition at 10µM (%) (CDK18/Cyclin Y; independent experiment 2): 34.7%
- CDK15/Y Inhibition at 10µM (%) (CDK15/Cyclin Y; average of experiments): -2.1%
- CDK15/Y Inhibition at 10µM (%) (CDK15/Cyclin Y; independent experiment 1): 6.2%
- CDK15/Y Inhibition at 10µM (%) (CDK15/Cyclin Y; independent experiment 2): -10.5%
- CDK7 Inhibition at 10µM (%) (CDK7; average of experiments): 26.3%
- CDK7 Inhibition at 10µM (%) (CDK7; independent experiment 1): 26.2%
- CDK7 Inhibition at 10µM (%) (CDK7; independent experiment 2): 26.4%
- CDK8/C Inhibition at 10µM (%) (CDK8/Cyclin C; average of experiments): 97.7%
- CDK8/C Inhibition at 10µM (%) (CDK8/Cyclin C; independent experiment 1): 98.5%
- CDK8/C Inhibition at 10µM (%) (CDK8/Cyclin C; independent experiment 2): 96.9%
- CDK1/E1 Inhibition at 10µM (%) (CDK1/Cyclin E1; average of experiments): 20.9%
- CDK1/E1 Inhibition at 10µM (%) (CDK1/Cyclin E1; independent experiment 1): 21.6%
- CDK1/E1 Inhibition at 10µM (%) (CDK1/Cyclin E1; independent experiment 2): 20.1%
- CDK19/C Inhibition at 10µM (%) (CDK19/Cyclin C; average of experiments): 90.8%
- CDK19/C Inhibition at 10µM (%) (CDK19/Cyclin C; independent experiment 1): 91.1%
- CDK19/C Inhibition at 10µM (%) (CDK19/Cyclin C; independent experiment 2): 90.5%
- CDK16/Y Inhibition at 10µM (%) (CDK16/Cyclin Y; independent experiment 1): 25.1%
- CDK16/Y Inhibition at 10µM (%) (CDK16/Cyclin Y; independent experiment 2): 16.6%
- CDK4/D1 Inhibition at 10µM (%) (CDK4/Cyclin D1; average of experiments): 21.3%
- CDK4/D1 Inhibition at 10µM (%) (CDK4/Cyclin D1; independent experiment 1): 22.1%
- CDK4/D1 Inhibition at 10µM (%) (CDK4/Cyclin D1; independent experiment 2): 20.6%
- CDK9/K Inhibition at 10µM (%) (CDK9/Cyclin K; average of experiments): 95.5%
- CDK9/K Inhibition at 10µM (%) (CDK9/Cyclin K; independent experiment 1): 96.2%
- CDK9/K Inhibition at 10µM (%) (CDK9/Cyclin K; independent experiment 2): 94.7%
- CDK14/Y Inhibition at 10µM (%) (CDK14/Cyclin Y; average of experiments): 13.9%
- CDK14/Y Inhibition at 10µM (%) (CDK14/Cyclin Y; independent experiment 1): 16.7%
- CDK14/Y Inhibition at 10µM (%) (CDK14/Cyclin Y; independent experiment 2): 11.1%
- CDK20/H Inhibition at 10µM (%) (CDK20/Cyclin H; independent experiment 1): 1.2%
- CDK20/H Inhibition at 10µM (%) (CDK20/Cyclin H; independent experiment 2): 0.755%
- CDK10/L2 Inhibition at 10µM (%) (CDK10/Cyclin L2; average of experiments): 11.0%
- CDK10/L2 Inhibition at 10µM (%) (CDK10/Cyclin L2; independent experiment 1): 18.5%
- CDK10/L2 Inhibition at 10µM (%) (CDK10/Cyclin L2; independent experiment 2): 3.5%
- CDK6/D1 Inhibition at 10µM (%) (CDK6/Cyclin D1; average of experiments): 19.5%
- CDK6/D1 Inhibition at 10µM (%) (CDK6/Cyclin D1; independent experiment 1): 12.0%
- CDK6/D1 Inhibition at 10µM (%) (CDK6/Cyclin D1; independent experiment 2): 27.0%
- CDK5/CDK5R1 Inhibition at 10µM (%) (CDK5/CDK5R1; average of experiments): 37.1%
- CDK5/CDK5R1 Inhibition at 10µM (%) (CDK5/CDK5R1; independent experiment 1): 38.6%
- CDK5/CDK5R1 Inhibition at 10µM (%) (CDK5/CDK5R1; independent experiment 2): 35.7%
